Source: ChEMBL document CHEMBL5696442, “Discovery of type II inhibitors of TGFβ-activated kinase 1 (TAK1) and mitogen-activated protein kinase kinase kinase kinase 2 (MAP4K2)” (J Med Chem, 2015)
The source made the active and inactive calls. The calls are words filed in the database; no cut-off is given here.

Key:
[1] = molecular target: T1, Serine/threonine-protein kinase Nek9 (Homo sapiens) (UniProt Q8TD19); assay: Inhibition of NEK9 Lys2 labeling site in human Huh-7 cell lysate at 1 uM by KiNativ Profiling analysis relative to control; assay type: subcellular
T1 sequence (whole entry): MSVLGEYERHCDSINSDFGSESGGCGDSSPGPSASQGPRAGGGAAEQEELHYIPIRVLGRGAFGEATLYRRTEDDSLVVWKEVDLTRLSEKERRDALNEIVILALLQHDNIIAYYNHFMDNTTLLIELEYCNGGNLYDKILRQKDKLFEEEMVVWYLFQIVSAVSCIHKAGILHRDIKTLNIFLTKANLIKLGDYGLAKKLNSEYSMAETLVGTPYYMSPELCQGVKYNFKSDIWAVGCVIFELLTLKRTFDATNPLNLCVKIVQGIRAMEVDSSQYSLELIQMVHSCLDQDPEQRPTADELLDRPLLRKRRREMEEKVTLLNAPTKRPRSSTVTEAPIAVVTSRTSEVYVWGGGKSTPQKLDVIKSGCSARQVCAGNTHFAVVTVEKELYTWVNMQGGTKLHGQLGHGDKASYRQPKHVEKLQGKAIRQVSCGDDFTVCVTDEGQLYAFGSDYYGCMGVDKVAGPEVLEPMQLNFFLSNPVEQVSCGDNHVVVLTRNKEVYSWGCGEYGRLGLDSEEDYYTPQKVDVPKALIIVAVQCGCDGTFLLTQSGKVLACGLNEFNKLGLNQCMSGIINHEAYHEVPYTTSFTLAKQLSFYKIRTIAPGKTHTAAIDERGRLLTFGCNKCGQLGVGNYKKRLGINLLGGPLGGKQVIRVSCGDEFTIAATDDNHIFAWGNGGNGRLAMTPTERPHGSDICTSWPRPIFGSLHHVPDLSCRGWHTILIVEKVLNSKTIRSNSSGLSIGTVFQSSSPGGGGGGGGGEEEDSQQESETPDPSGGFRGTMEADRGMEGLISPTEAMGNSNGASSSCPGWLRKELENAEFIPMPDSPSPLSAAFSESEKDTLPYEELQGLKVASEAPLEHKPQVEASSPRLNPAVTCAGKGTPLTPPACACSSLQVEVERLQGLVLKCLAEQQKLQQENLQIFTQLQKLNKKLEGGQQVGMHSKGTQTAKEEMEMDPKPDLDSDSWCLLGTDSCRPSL

[2] = molecular target: Serine/threonine-protein kinase WNK2 (Homo sapiens) (UniProt Q9Y3S1); assay: Inhibition of Wnk2 Lys2 labeling site in human Huh-7 cell lysate at 1 uM by KiNativ Profiling analysis relative to control; assay type: subcellular
Sequence of Serine/threonine-protein kinase WNK2 (Homo sapiens) (Q9Y3S1 whole entry): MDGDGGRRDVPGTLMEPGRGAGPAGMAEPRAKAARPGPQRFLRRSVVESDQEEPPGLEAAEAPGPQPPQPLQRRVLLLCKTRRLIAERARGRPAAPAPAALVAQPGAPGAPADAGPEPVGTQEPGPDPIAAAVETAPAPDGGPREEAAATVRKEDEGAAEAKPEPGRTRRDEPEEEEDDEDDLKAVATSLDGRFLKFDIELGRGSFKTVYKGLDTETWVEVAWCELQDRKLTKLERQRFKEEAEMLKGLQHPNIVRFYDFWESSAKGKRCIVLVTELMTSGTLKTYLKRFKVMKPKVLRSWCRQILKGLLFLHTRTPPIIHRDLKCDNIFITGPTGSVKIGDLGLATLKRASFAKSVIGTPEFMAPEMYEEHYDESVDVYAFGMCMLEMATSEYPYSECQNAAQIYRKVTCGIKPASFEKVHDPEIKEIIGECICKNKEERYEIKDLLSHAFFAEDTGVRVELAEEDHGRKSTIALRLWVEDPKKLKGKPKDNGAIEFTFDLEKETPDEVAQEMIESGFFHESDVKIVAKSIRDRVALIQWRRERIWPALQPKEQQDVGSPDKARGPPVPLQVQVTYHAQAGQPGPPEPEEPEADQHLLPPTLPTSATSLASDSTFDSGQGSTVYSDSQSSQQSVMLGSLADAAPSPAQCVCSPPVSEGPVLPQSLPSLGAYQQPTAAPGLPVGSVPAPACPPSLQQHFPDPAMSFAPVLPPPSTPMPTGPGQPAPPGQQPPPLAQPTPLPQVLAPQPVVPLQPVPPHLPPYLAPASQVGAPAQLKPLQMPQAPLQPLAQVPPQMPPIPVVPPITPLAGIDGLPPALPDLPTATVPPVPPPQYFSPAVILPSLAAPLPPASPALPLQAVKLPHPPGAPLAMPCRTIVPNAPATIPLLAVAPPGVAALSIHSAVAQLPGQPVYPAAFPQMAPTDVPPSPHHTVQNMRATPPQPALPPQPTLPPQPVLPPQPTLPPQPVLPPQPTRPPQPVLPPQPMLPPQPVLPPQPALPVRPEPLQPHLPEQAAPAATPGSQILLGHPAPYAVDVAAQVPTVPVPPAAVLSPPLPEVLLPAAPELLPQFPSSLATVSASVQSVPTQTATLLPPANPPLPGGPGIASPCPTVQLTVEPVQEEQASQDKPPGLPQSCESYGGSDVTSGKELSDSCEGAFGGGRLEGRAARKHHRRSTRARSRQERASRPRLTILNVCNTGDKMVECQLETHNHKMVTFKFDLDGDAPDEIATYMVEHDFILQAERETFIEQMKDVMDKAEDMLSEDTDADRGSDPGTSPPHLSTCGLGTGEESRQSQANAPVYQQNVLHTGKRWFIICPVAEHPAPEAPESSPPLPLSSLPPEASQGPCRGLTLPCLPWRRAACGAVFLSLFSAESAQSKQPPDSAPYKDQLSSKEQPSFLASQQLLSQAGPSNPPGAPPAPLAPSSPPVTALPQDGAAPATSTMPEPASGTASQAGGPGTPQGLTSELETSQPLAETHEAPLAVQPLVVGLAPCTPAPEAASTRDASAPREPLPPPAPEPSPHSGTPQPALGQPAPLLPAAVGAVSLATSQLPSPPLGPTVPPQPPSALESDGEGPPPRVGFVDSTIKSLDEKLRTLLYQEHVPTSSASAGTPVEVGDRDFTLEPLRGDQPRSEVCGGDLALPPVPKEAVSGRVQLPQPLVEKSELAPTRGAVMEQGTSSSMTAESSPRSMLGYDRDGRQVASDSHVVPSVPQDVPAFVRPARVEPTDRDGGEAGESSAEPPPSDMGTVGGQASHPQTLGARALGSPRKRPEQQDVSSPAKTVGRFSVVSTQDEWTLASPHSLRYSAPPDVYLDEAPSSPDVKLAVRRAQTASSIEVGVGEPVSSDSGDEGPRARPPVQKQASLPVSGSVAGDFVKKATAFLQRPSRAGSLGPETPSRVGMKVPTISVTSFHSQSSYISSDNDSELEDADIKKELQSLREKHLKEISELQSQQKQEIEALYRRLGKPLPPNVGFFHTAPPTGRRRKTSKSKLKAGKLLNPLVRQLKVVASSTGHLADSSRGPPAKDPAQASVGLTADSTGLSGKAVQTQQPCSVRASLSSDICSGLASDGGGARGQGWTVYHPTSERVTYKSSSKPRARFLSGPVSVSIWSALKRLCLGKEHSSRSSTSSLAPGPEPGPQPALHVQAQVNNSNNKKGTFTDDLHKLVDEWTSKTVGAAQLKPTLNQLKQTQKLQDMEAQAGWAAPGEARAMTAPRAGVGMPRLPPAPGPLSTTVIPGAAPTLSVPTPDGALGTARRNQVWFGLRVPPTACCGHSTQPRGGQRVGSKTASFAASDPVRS

[3] = molecular target: Serine/threonine-protein kinase 38-like (Homo sapiens) (UniProt Q9Y2H1); assay: Inhibition of NDR2 ACT labeling site in human Huh-7 cell lysate at 1 uM by KiNativ Profiling analysis relative to control; assay type: subcellular
[4] = molecular target: Serine/threonine-protein kinase Nek6 (Homo sapiens) (UniProt Q9HC98); assay: Inhibition of NEK6 Lys2 labeling site harbouring DIKPANVFITATGVVK in human Huh-7 cell lysate at 1 uM by KiNativ Profiling analysis relative to control; assay type: subcellular
[5] = molecular target: Tyrosine-protein kinase TXK (Homo sapiens) (UniProt P42681); assay: Inhibition of TXK (unknown origin) at 10 uM by Ambit Kinomescan binding assay relative to control; values are per cent of control
Sequence of Tyrosine-protein kinase TXK (Homo sapiens) (P42681 whole entry): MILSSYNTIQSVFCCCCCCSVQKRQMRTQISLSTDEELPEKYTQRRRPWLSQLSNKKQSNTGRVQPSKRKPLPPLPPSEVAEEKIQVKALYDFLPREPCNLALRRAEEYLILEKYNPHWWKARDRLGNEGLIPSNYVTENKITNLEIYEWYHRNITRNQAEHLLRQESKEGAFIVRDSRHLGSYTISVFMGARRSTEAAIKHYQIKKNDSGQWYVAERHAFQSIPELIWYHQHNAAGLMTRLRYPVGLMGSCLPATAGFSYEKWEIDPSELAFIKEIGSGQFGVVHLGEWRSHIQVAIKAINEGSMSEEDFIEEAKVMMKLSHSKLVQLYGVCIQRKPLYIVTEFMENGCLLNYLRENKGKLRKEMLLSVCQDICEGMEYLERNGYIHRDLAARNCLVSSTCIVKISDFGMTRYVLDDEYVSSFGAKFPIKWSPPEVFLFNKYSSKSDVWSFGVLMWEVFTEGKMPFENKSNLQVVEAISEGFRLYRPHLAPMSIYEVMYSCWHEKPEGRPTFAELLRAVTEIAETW

[6] = molecular target: Serine/threonine-protein kinase MRCK beta (Homo sapiens) (UniProt Q9Y5S2); assay: Inhibition of MRCKB (unknown origin) at 10 uM by Ambit Kinomescan binding assay
Sequence of Serine/threonine-protein kinase MRCK beta (Homo sapiens) (Q9Y5S2 whole entry): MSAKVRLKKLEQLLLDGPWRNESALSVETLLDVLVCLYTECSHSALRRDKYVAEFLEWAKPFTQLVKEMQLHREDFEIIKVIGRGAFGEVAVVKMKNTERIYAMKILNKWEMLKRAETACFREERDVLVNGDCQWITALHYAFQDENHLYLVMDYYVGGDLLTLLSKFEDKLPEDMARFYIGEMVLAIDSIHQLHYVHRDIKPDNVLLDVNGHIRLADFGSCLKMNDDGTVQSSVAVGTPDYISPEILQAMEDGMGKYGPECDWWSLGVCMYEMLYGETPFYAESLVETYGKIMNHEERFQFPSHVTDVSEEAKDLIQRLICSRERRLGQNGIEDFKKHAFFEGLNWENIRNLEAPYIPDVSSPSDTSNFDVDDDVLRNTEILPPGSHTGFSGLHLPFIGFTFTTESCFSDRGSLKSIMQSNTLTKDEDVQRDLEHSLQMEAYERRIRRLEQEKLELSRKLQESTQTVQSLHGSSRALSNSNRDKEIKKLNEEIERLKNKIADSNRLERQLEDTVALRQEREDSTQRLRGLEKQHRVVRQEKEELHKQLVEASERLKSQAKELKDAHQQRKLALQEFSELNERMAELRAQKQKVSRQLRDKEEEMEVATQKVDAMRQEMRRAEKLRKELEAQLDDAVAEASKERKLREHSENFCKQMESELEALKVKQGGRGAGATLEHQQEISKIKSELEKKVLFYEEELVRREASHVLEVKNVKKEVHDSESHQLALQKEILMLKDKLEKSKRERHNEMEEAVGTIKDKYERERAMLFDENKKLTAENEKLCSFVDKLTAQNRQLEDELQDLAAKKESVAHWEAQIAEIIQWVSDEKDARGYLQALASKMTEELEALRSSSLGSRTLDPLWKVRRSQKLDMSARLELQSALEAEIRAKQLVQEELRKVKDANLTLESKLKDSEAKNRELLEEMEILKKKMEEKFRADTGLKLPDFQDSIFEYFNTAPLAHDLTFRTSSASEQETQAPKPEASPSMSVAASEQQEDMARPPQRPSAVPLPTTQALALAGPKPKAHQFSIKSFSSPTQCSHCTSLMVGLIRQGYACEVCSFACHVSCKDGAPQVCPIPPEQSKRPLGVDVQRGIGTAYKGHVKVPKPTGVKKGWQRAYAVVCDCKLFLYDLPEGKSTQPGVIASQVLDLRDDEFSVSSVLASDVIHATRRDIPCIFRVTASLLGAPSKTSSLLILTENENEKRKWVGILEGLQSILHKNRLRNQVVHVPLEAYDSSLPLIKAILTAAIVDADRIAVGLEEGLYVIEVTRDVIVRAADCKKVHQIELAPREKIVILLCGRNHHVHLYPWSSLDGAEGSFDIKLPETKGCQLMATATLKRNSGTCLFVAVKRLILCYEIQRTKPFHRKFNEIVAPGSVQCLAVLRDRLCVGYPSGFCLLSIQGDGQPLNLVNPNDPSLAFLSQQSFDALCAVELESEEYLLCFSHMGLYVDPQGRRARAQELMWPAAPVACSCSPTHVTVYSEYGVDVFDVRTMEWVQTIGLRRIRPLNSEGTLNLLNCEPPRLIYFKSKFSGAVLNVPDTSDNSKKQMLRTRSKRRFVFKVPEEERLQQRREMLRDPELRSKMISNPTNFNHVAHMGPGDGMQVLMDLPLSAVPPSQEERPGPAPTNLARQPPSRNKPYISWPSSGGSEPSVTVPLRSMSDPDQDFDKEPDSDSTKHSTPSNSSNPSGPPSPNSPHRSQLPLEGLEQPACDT

[7] = molecular target: Insulin-like growth factor 1 receptor (Homo sapiens) (UniProt P08069); assay: Inhibition of IGF1R (unknown origin) at 1 uM by Ambit Kinomescan binding assay relative to control; values are per cent of control
[8] = molecular target: eIF-2-alpha kinase GCN2 (Homo sapiens) (UniProt Q9P2K8); assay: Inhibition of GCN2 domain2 Lys2 labeling site in human A-375 cells at 0.5 uM by KiNativ Profiling analysis relative to control; assay type: cell-based
[9] = molecular target: T2, Ephrin type-B receptor 2 (Homo sapiens) (UniProt P29323); assay: Inhibition of EPHB2 (unknown origin) at 1 uM by Ambit Kinomescan binding assay relative to control
T2 sequence (whole entry): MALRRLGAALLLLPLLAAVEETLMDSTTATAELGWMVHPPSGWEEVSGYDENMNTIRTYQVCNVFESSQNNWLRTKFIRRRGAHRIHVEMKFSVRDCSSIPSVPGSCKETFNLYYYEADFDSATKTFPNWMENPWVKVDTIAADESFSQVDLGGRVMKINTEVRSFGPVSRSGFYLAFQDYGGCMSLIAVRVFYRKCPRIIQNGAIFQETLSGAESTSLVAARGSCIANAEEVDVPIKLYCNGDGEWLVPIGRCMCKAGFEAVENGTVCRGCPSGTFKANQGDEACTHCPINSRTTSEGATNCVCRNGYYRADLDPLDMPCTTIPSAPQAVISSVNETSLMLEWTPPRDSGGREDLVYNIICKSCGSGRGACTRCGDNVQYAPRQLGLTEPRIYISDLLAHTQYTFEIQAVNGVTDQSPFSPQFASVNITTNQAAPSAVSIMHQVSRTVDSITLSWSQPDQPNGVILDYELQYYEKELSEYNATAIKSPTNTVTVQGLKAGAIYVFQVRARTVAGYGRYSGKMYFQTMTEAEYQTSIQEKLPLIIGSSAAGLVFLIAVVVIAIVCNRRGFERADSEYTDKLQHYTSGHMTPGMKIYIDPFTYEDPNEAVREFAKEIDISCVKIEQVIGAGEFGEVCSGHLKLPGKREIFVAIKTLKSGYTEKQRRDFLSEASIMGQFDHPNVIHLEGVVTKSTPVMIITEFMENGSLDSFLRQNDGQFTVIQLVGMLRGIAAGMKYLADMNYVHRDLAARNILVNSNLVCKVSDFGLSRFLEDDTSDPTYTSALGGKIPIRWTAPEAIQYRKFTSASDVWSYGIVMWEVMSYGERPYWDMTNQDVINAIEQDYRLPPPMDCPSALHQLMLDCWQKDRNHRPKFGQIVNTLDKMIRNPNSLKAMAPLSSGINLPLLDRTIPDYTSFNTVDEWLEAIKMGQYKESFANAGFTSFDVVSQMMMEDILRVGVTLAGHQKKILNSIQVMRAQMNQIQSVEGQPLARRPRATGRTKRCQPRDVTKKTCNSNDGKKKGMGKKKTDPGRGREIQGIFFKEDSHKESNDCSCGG

[10] = molecular target: Serine/threonine-protein kinase 4 (Homo sapiens) (UniProt Q13043); assay: Inhibition of MST1 Lys1 labeling site harbouring AIHKETGQIVAIKQVPVESDLQEIIK in human A-375 cells at 5 uM by KiNativ Profiling analysis relative to control
Sequence of Serine/threonine-protein kinase 4 (Homo sapiens) (Q13043 whole entry, looked up): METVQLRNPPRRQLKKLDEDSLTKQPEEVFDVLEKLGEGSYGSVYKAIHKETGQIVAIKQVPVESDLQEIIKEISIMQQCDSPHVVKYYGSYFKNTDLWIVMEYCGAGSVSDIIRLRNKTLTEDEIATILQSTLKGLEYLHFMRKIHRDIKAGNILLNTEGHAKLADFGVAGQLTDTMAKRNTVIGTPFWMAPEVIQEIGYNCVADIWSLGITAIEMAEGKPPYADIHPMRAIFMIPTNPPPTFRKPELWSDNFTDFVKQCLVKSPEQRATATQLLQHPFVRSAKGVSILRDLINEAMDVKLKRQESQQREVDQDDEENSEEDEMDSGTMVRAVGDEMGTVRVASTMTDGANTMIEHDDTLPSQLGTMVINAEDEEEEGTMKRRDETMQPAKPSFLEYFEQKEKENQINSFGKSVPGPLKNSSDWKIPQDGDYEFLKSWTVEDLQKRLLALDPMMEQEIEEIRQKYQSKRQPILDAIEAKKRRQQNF

[11] = molecular target: Receptor tyrosine-protein kinase erbB-2 (Homo sapiens) (UniProt P04626); assay: Inhibition of ERBB2 (unknown origin) at 1 uM by Ambit Kinomescan binding assay relative to control

Compound: CNc1cc(Oc2cc(C(=O)Nc3cc(N4CCN(C)CC4)cc(C(F)(F)F)c3)ccc2C)ncn1
- inhibition [1]: -3.1%
- inhibition [2]: 2.7%
- inhibition [3]: 4.2%
- inhibition [4]: -5%

Compound: CCN1CCN(Cc2ccc(NC(=O)c3ccc(C)c(Oc4ccnc5[nH]ccc45)c3)cc2C(F)(F)F)CC1
- residual activity [5]: 12%
- inhibition [6]: inactive

Compound: CCN1CCN(Cc2ccc(NC(=O)c3ccc(C)c(/C=C/c4cnc5[nH]ccc5c4OC)c3)cc2C(F)(F)F)CC1
- residual activity [7]: 100%
- inhibition [8]: 44.6%
- inhibition [9]: 5.8%
- inhibition [10]: 16.1%
- inhibition [11]: 19%
